Measurements taken from US8962322B2, “Enhancers of induced pluripotent stem cell reprogramming” (City of Hope, priority 2012, dated 2015).
Read-outs that look alike come from different tables or passages of the source.

What was measured:
human Oct4 promoter = experiment: Oct4-luc luciferase reporter assay (stably transfected CV1 cells); assay type: cell-based; settings: for induction of Oct4-luc, comparison with known reprogramming enhancers (in words): OAC1 1 μM, BIO 2 μM, BIX 2 μM, AzaC 2 μM, Vc 25 μg/ml, Am580 10 nM, tranylcypromine 5 μM, VPA 0.5 mM, two days; for Oct4-luc Activity / Oct4-luc fold Induction / fold induction at 1 µM: compound at 1 μM, Oct4-luc cells, triplicates
Excerpt: A high-throughput screening scheme was designed to identify Oct4 promoter-activating compounds using a luciferase reporter under the control of the human Oct4 promoter (Oct4-luc). […] A stable cell line (Oct4-luc) that expresses luciferase reporter driven by the exogenous Oct4 promoter was established using hygromycin-resistance as a selection marker. These Oct4-luc cells were used for high-throughput screening of a chemical library of 80,000 compounds. The luciferase reporter activity was measured 24 hr after compound treatment. Solvent treatment was included as a negative control.
(§1) Then the promoter sequences were cloned into pGL4.4-luc-Hyg vector (Promega) to get Oct4-luc or Nanog-luc construct and the fidelity of the Oct4 and Nanog promoter DNA sequences was confirmed by bi-directional sequencing. CV 1 cells were transfected with the Oct4-luc or Nanog-luc constructs and the stably-transfected cells were selected by hygromycine resistance.
Compound Screening: The Oct4-luc cells were seeded at 1.75×10^4 cells per well density into 96-well plates. Compounds were added to cells one day after cell seeding at the concentration of 10 μM for 24 hr in the High-Throughput Screening core facility at City of Hope. Compounds that induced luciferase activity 3-fold or more were selected for further validation in both Oct4-luc and Nanog-luc cells.
(§2) Luciferase Reporter Assays: The Oct4-luc or Nanog-luc cells were treated with compound OAC 1 or its structural analogs at 1 μM concentration or at indicated concentrations in triplicates. Other compounds used include 2 μM BIO, 2 μM BIX, 2 μM
(§3) AzaC, 25 μg/ml Vc, 10 nM Am580, 5 μM tranylcypromine, and 0.5 mM VPA. Luciferase reporter assays were performed as described (51) 24 hr after compound treatment or at indicated time points. For Topflash reporter assays, 0.2 μg β-catenin-responsive Topflash reporter gene plasmid was introduced into CV1 cells using trasfection (Bio-Rad). Compounds were added 6 hr after transfection. Luciferase activity was measured 48 hr after compound treatment using the Glo Luciferase Assay System (Promega).

human Nanog promoter = experiment: Nanog-luc luciferase reporter assay (stably transfected CV1 cells); assay type: cell-based; settings: for induction of Nanog-luc, comparison with known reprogramming enhancers (in words): OAC1 1 μM, BIO 2 μM, BIX 2 μM, AzaC 2 μM, Vc 25 μg/ml, Am580 10 nM, tranylcypromine 5 μM, VPA 0.5 mM, two days; for Nanog-luc fold Induction / fold induction at 1 µM: compound at 1 μM, Nanog-luc cells, triplicates; for fold induction at 1 µM: Chlorocebus aethiops, CV-1
Experimental: Oct4, Sox2, and Nanog form a positive regulatory loop to regulate the expression of each other, and Nanog is considered a downstream target gene of Oct4 and Sox2 (37). Therefore, activation of Nanog promoter was used as a validation assay for the identified compounds. Specifically, the Oct4 promoter-activating compounds were tested to ascertain whether they activate a human
Nanog promoter-driven luciferase reporter gene using in triplicate luciferase reporter assays.
as §1, §2, §3

[1] = Homo sapiens, CV-1, 24 h, read-out: Oct4-luc Activity
[2] = read-out: Oct4-luc fold Induction

| SMILES | Oct4-luc fold Induction (human Oct4 promoter) [fold] | Nanog-luc fold Induction (human Nanog promoter) [fold] | induction of Oct4-luc, comparison with known reprogramming enhancers (in words) (human Oct4 promoter) | induction of Nanog-luc, comparison with known reprogramming enhancers (in words) (human Nanog promoter) | Oct4-luc Activity (human Oct4 promoter) | fold induction at 1 µM (human Oct4 promoter; [1]) | fold induction at 1 µM (human Oct4 promoter; [2]) | fold induction at 1 µM (human Nanog promoter) |
| --- | --- | --- | --- | --- | --- | --- | --- | --- |
| N[C@@H]1C[C@H]1c1ccccc1 (racemic) [tranylcypromine, reference compound] | – | – | no significant effect | no significant effect | – | – | – | – |
| CC1(C)CCC(C)(C)c2cc(C(=O)Nc3ccc(C(=O)O)cc3)ccc21 [Am580, reference compound] | – | – | no significant effect | no significant effect | – | – | – | – |
| COc1cc2nc(N3CCCN(C)CC3)nc(NC3CCN(Cc4ccccc4)CC3)c2cc1OC [BIX, reference compound] | – | – | no significant effect | no significant effect | – | – | – | – |
| O=C(Nc1ccc2[nH]ncc2c1)c1cccc(C(F)(F)F)c1 [Compound C21] | 1.2 | 1.2 | – | – | + (molecules that induce Oct4-luc less than 1.8-fold were indicated as “+”) | – | – | – |
| COc1cc(OC)c(C(=O)Nc2ccc3[nH]ncc3c2)cc1OC [Compound C33] | – | – | – | – | – | < 1.8 | 1 | 1.1 |
| COc1ccc(Cl)cc1C(=O)Nc1ccc2[nH]ncc2c1 [Compound C34] | – | – | – | – | – | < 1.8 | 1.23 | 1.38 |
| O=C(Nc1ccc2[nH]ncc2c1)c1cc(F)c(F)cc1Cl [Compound C35] | – | – | – | – | – | < 1.8 | 1.15 | 1.24 |
| O=C(Nc1ccc2[nH]ncc2c1)c1c(F)c(F)c(F)c(F)c1F [Compound C36] | – | – | – | – | – | < 1.8 | 1 | 1.02 |
| COc1cc(C(=O)Nc2ccc3[nH]nnc3c2)cc(OC)c1OC [Compound C37] | – | – | – | – | – | < 1.8 | 1.05 | 1.08 |
| CC(C)(C)OC(=O)Nc1ccc(C(=O)Nc2ccc3[nH]ncc3c2)cc1 [Compound C38] | – | – | – | – | – | < 1.8 | 1.2 | 1.09 |
| Nc1ccc(C(=O)Nc2ccc3[nH]ncc3c2)cc1 [Compound C39] | – | – | – | – | – | < 1.8 | 1.62 | 1.55 |
| CC(C)(C)OC(=O)NCc1ccc(C(=O)Nc2ccc3[nH]ncc3c2)cc1 [Compound C40] | – | – | – | – | – | < 1.8 | 0.97 | 0.96 |
| NCc1ccc(C(=O)Nc2ccc3[nH]ncc3c2)cc1 [Compound C41] | – | – | – | – | – | < 1.8 | 1.01 | 1.06 |
| O=C(CCCCC1SCC2NC(=O)NC21)NCc1ccc(C(=O)Nc2ccc3[nH]ncc3c2)cc1 (stereo not drawn) [Compound C42] | – | – | – | – | – | < 1.8 | 0.91 | 0.97 |
| O=C(Nc1ccc2[nH]ccc2c1)c1ccc(F)cc1 [OAC3, 4-fluoro-N-(1H-indol-5-yl)benzamide] | – | – | – | – | – | ≥ 1.8 | 3.7 | 3.5 |

Continued, in another order:

| Oct4-luc fold Induction (human Oct4 promoter) [fold] | Nanog-luc fold Induction (human Nanog promoter) [fold] | SMILES | induction of Oct4-luc, comparison with known reprogramming enhancers (in words) (human Oct4 promoter) | induction of Nanog-luc, comparison with known reprogramming enhancers (in words) (human Nanog promoter) | Oct4-luc Activity (human Oct4 promoter) | fold induction at 1 µM (human Oct4 promoter; [1]) | fold induction at 1 µM (human Oct4 promoter; [2]) | fold induction at 1 µM (human Nanog promoter) |
| --- | --- | --- | --- | --- | --- | --- | --- | --- |
| 1.0 | 1.1 | CN1CCC(c2c[nH]c3ccc(NC(=O)c4ccc(F)cc4)cc23)CC1 [Compound C16] | – | – | + (molecules that induce Oct4-luc less than 1.8-fold were indicated as “+”) | – | – | – |
| 1.1 | 1.1 | Cc1ccc(C(=O)Nc2ccc3[nH]cc(C#N)c3c2)cc1 [Compound C17] | – | – | + (molecules that induce Oct4-luc less than 1.8-fold were indicated as “+”) | – | – | – |
| 1.3 | 1.2 | O=C(Nc1ccc2[nH]ncc2c1)c1cccc(F)c1 [Compound C18] | – | – | + (molecules that induce Oct4-luc less than 1.8-fold were indicated as “+”) | – | – | – |
| 1.6 | 1.5 | O=C(Nc1ccc2[nH]ncc2c1)c1cccc(Cl)c1 [Compound C19] | – | – | + (molecules that induce Oct4-luc less than 1.8-fold were indicated as “+”) | – | – | – |
| 1.5 | 1.1 | O=C(Nc1ccc2[nH]ncc2c1)c1cccc(Br)c1 [Compound C20] | – | – | + (molecules that induce Oct4-luc less than 1.8-fold were indicated as “+”) | – | – | – |
| 1.5 | 1.6 | O=C(Nc1ccc2[nH]ncc2c1)c1ccccc1F [Compound C22] | – | – | + (molecules that induce Oct4-luc less than 1.8-fold were indicated as “+”) | – | – | – |
| 1.7 | 1.6 | O=C(Nc1ccc2[nH]ncc2c1)c1ccccc1Cl [Compound C23] | – | – | + (molecules that induce Oct4-luc less than 1.8-fold were indicated as “+”) | – | – | – |
| 1.5 | 1.6 | O=C(Nc1ccc2[nH]ncc2c1)c1ccccc1Br [Compound C24] | – | – | + (molecules that induce Oct4-luc less than 1.8-fold were indicated as “+”) | – | – | – |
| 1.5 | 1.6 | COc1ccccc1C(=O)Nc1ccc2[nH]ncc2c1 [Compound C25] | – | – | + (molecules that induce Oct4-luc less than 1.8-fold were indicated as “+”) | – | – | – |
| 1.2 | 1.2 | CCOc1ccccc1C(=O)Nc1ccc2[nH]ncc2c1 [Compound C26] | – | – | + (molecules that induce Oct4-luc less than 1.8-fold were indicated as “+”) | – | – | – |
| 1.4 | 1.4 | COc1cccc(C(=O)Nc2ccc3[nH]ncc3c2)c1OC [Compound C27] | – | – | + (molecules that induce Oct4-luc less than 1.8-fold were indicated as “+”) | – | – | – |
| 1.4 | 1.4 | COc1ccc(C(=O)Nc2ccc3[nH]ncc3c2)c(OC)c1 [Compound C28] | – | – | + (molecules that induce Oct4-luc less than 1.8-fold were indicated as “+”) | – | – | – |
| 1.1 | 1.1 | COc1ccc(C(=O)Nc2ccc3[nH]ncc3c2)cc1OC [Compound C29] | – | – | + (molecules that induce Oct4-luc less than 1.8-fold were indicated as “+”) | – | – | – |
| 1.0 | 1.1 | CCOc1ccc(C(=O)Nc2ccc3[nH]ncc3c2)cc1OCC [Compound C30] | – | – | + (molecules that induce Oct4-luc less than 1.8-fold were indicated as “+”) | – | – | – |
| 1.0 | 1.1 | O=C(Nc1ccc2[nH]nnc2c1)c1cccc(Cl)c1 [Compound C31] | – | – | + (molecules that induce Oct4-luc less than 1.8-fold were indicated as “+”) | – | – | – |
| 1.3 | 1.2 | Cc1nc2cc(NC(=O)c3ccc([N+](=O)[O-])cc3)ccc2[nH]1 [Compound C32] | – | – | + (molecules that induce Oct4-luc less than 1.8-fold were indicated as “+”) | – | – | – |
| 4.8 | 4.9 | COc1ccc(C(=O)Nc2ccc3[nH]ccc3c2)cc1 [OAC4] | – | – | ++ (Compounds that induce Oct4-luc 1.8-fold or more were classified as “++”) | – | – | – |
| 2.9 | 2.4 | O=C(Nc1ccc2[nH]ccc2c1)c1ccc2nonc2c1 [OAC5] | – | – | ++ (Compounds that induce Oct4-luc 1.8-fold or more were classified as “++”) | – | – | – |
| 3.2 | 2.9 | COc1ccc(C(=O)Nc2ccc3[nH]ncc3c2)cc1 [OAC6] | – | – | ++ (Compounds that induce Oct4-luc 1.8-fold or more were classified as “++”) | – | – | – |
| 2.2 | 2.0 | O=C(Nc1ccc2[nH]ncc2c1)c1ccc(F)cc1 [OAC7] | – | – | ++ (Compounds that induce Oct4-luc 1.8-fold or more were classified as “++”) | – | – | – |
| 1.9 | 1.8 | O=C(Nc1ccc2[nH]ncc2c1)c1ccccc1 [OAC8] | – | – | ++ (Compounds that induce Oct4-luc 1.8-fold or more were classified as “++”) | – | – | – |
